# Laboratory results taken from patent publication US11596644B2, “Method for treating post-prandial hypoglycemia” (AVOLYNT, priority 2018, dated 2023).
# Tests used:
# [1] = test system: healthy adult male volunteers; test: Repeat dose study in humans, pharmacodynamic parameters after meals; assay type: in vivo, human; settings: repeat dosing; for AUC 0-5 GIP / AUC 0-5 GLP-1 (active) / AUC 0-5 Insulin / AUC 0-5 glucose / GIP (peak) / GLP-1 (active) (peak) / Glucose (peak) / Insulin (peak) / Time (h) to peak, GIP / Time (h) to peak, GLP-1 (active) / Time (h) to peak, glucose / Time (h) to peak, insulin: Day 3 after breakfast
# Method: Repeat dose study in humans. Oral doses of 2 mg, 5 mg, 10 mg, 20 mg, of mizagliflozin, placebo or miglitol 50 mg per dose three times daily to healthy adult male volunteers by a randomized, placebo-controlled, parallel-group, double-blind comparison method. The dose was orally administered with approximately 150 mL of water once daily immediately before breakfast on Days 1 and 13, and three times daily immediately before every meal on Days 3 to 12.
# Changes in the following parameters and ΔAUC from 0 to t* hours after breakfast, lunch, and evening meal were measured: Blood glucose level, Serum insulin concentration, Blood active GLP-1 concentration, and Blood total GIP concentration, where t=0.5, 1, 1.5, 2, and 3 (t=0.5, 1, 1.5, 2, 3, and 5 only after breakfast).
# In the miglitol group, hyperglycemia was suppressed after breakfast, lunch, and evening meal, as compared to the placebo group. […] These pharmacodynamic effects more or less persisted during 10-day repeated administration. There was no correlation between plasma mizagliflozin concentration and the pharmacodynamic effects. Measurements in Tables 5-8 were performed on Day 3 after breakfast.
# rat SGLT1 = target: T1, rat SGLT1 (Rattus norvegicus, UniProt P53790); test: Inhibition of radiolabeled α-MG uptake into COS-7 cells transfected with rat SGLT1 (Dixon plot); assay type: cell-based
# T1 construct: expressed in transfected cells; host or cells: COS-7
# T1 sequence (P53790 1-665): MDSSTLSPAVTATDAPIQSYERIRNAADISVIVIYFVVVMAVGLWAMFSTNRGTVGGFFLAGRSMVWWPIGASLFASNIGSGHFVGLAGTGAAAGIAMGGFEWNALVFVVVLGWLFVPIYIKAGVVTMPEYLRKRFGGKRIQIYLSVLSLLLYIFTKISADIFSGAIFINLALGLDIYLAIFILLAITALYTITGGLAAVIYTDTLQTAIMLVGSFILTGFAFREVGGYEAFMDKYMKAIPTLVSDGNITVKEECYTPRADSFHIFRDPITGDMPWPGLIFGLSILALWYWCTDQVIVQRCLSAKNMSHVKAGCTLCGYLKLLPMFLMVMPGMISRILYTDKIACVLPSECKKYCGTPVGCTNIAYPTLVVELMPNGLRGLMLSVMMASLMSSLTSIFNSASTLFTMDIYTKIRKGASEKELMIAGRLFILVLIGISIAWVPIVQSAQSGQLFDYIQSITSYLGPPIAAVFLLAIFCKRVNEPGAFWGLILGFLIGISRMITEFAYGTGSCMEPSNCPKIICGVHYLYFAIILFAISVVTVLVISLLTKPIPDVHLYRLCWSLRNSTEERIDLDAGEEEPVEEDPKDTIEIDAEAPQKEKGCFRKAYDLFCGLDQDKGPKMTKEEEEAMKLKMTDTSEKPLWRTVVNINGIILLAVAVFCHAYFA
# Method: (§1) Selective inhibition study. Inhibition constants (Ki) of mizagliflozin for rat and human SGLT1 and SGLT2 were determined measuring concentration-dependent effects of test compound on uptake of radiolabeled methyl-α-D-glucopyranoside (α-MG) into COS-7 cells transiently transfected with cloned SGLT1 or SGLT2. Mizagliflozin was assessed at concentrations from 1 to 30 μM and 3 to 100 μM for human and rat SGLT2, respectively. It was assessed at concentrations from 30 nM to 1 μM and 10 to 30 nM for human and rat SGLT1, respectively. α-MG test concentrations were 0.3 and 1 mM. Data were analyzed and Ki determined using Dixon plots of initial transport rates. […] Inhibition constants were also determined for human SGLT1 and SGLT2.
# human SGLT1 = target: T2, human SGLT1 (Homo sapiens, UniProt P13866); test: Inhibition of radiolabeled α-MG uptake into COS-7 cells transfected with human SGLT1 (Dixon plot); assay type: cell-based
# T2 construct: expressed in transfected cells; host or cells: COS-7
# T2 sequence (P13866 1-664): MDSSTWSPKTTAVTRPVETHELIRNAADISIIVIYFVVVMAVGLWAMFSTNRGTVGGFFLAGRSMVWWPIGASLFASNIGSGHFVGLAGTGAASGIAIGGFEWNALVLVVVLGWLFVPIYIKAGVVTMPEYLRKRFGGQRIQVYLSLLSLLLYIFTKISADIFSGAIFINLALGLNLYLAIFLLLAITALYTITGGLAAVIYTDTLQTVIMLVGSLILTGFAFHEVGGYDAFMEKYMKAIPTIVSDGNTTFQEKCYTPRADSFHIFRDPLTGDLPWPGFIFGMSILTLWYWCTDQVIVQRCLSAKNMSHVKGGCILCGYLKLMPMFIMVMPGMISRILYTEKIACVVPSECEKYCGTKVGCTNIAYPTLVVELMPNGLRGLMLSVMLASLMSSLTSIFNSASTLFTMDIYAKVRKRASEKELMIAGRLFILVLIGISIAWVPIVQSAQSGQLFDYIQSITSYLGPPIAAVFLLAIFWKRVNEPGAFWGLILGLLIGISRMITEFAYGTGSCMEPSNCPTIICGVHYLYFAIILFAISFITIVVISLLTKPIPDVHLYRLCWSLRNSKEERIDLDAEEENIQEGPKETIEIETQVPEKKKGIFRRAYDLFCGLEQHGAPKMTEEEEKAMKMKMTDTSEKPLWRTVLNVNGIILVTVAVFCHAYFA
# Method: as §1
smiles,measurement,setting,value
"Cc1cc(OCCCNCC(C)(C)C(N)=O)ccc1Cc1c(O[C@@H]2O[C@H](CO)[C@@H](O)[C@H](O)[C@H]2O)n[nH]c1C(C)C [mizagliflozin, 3-(3-{4-[3-(β-D-glucopyranosyloxy)-5-isopropyl-1H-pyrazol-4-ylmethyl-]-3-methylphenoxy}propylamino)-2,2-dimethylpropionamide]",AUC 0-5 GIP,[1]; 2 mg per dose,1096.21 pg·h/mL
same,AUC 0-5 GLP-1 (active),[1]; 2 mg per dose,21.21 pmol·h/L
same,AUC 0-5 Insulin,[1]; 2 mg per dose,166.61 uU*h/ml
same,AUC 0-5 glucose,[1]; 2 mg per dose,550.6 mg·h/dL
same,GIP (peak),[1]; 2 mg per dose,285 pg/mL
same,GLP-1 (active) (peak),[1]; 2 mg per dose,5.98 pmol/L
same,Glucose (peak),[1]; 2 mg per dose,131.6 mg/dL
same,Insulin (peak),[1]; 2 mg per dose,58.05 uU/ml
same,"Time (h) to peak, GIP",[1]; 2 mg per dose,3 h
same,"Time (h) to peak, GLP-1 (active)",[1]; 2 mg per dose,0.5 h
same,"Time (h) to peak, glucose",[1]; 2 mg per dose,1 h
same,"Time (h) to peak, insulin",[1]; 2 mg per dose,1.5 h
same,AUC 0-5 GIP,[1]; 5 mg per dose,1057.89 pg·h/mL
same,AUC 0-5 GLP-1 (active),[1]; 5 mg per dose,22.36 pmol·h/L
same,AUC 0-5 Insulin,[1]; 5 mg per dose,146.08 uU*h/ml
same,AUC 0-5 glucose,[1]; 5 mg per dose,524.6 mg·h/dL
same,GIP (peak),[1]; 5 mg per dose,280.88 pg/mL
same,GLP-1 (active) (peak),[1]; 5 mg per dose,5.95 pmol/L
same,Glucose (peak),[1]; 5 mg per dose,118.6 mg/dL
same,Insulin (peak),[1]; 5 mg per dose,44 uU/ml
same,"Time (h) to peak, GIP",[1]; 5 mg per dose,3 h
same,"Time (h) to peak, GLP-1 (active)",[1]; 5 mg per dose,0.5 h
same,"Time (h) to peak, glucose",[1]; 5 mg per dose,1.5 h
same,"Time (h) to peak, insulin",[1]; 5 mg per dose,2 h
same,AUC 0-5 GIP,[1]; 10 mg per dose,839.7 pg·h/mL
same,AUC 0-5 GLP-1 (active),[1]; 10 mg per dose,41.12 pmol·h/L
same,AUC 0-5 Insulin,[1]; 10 mg per dose,176.7 uU*h/ml
same,AUC 0-5 glucose,[1]; 10 mg per dose,541.3 mg·h/dL
same,GIP (peak),[1]; 10 mg per dose,240.75 pg/mL
same,GLP-1 (active) (peak),[1]; 10 mg per dose,10.01 pmol/L
same,Glucose (peak),[1]; 10 mg per dose,121.3 mg/dL
same,Insulin (peak),[1]; 10 mg per dose,55.13 uU/ml
same,"Time (h) to peak, GIP",[1]; 10 mg per dose,3 h
same,"Time (h) to peak, GLP-1 (active)",[1]; 10 mg per dose,0.5 h
same,"Time (h) to peak, glucose",[1]; 10 mg per dose,1.5 h
same,"Time (h) to peak, insulin",[1]; 10 mg per dose,1 h
same,AUC 0-5 GIP,[1]; 20 mg per dose,755.01 pg·h/mL
same,AUC 0-5 GLP-1 (active),[1]; 20 mg per dose,24.74 pmol·h/L
same,AUC 0-5 Insulin,[1]; 20 mg per dose,142.25 uU*h/ml
same,AUC 0-5 glucose,[1]; 20 mg per dose,522.4 mg·h/dL
same,GIP (peak),[1]; 20 mg per dose,217.15 pg/mL
same,GLP-1 (active) (peak),[1]; 20 mg per dose,6.01 pmol/L
same,Glucose (peak),[1]; 20 mg per dose,121 mg/dL
same,Insulin (peak),[1]; 20 mg per dose,47.69 uU/ml
same,"Time (h) to peak, GIP",[1]; 20 mg per dose,3 h
same,"Time (h) to peak, GLP-1 (active)",[1]; 20 mg per dose,0.5 h
same,"Time (h) to peak, glucose",[1]; 20 mg per dose,1.5 h
same,"Time (h) to peak, insulin",[1]; 20 mg per dose,1.5 h
same,active GLP-1 concentration,[1]; healthy adult male volunteers,a tendency toward increase in active GLP-1 concentration was seen
same,"hyperglycemia after breakfast, lunch, and evening meal",[1]; healthy adult male volunteers,"suppressed after breakfast, lunch, and evening meal on a level equivalent to the miglitol group"
same,insulin secretion,[1]; healthy adult male volunteers,inhibition of insulin secretion along with inhibition of hyperglycemia was seen the same as in the miglitol group
same,total GIP concentration,[1]; healthy adult male volunteers,increase in total GIP concentration was seen on a level equivalent to the miglitol group
same,total GLP-1 concentration,[1]; healthy adult male volunteers,increase in total GLP-1 concentration was seen on a level equivalent to the miglitol group
same,mode of inhibition of SGLT1 (Dixon plot intersection pattern),rat SGLT1; rat SGLT1,competitive with substrate
same,Ki,"rat SGLT1; α-MG 0.3 and 1 mM, COS-7 cells",31.2 nM
same,mode of inhibition of SGLT1 (Dixon plot intersection pattern),human SGLT1; human SGLT1,competitive with substrate
same,Ki,"human SGLT1; α-MG 0.3 and 1 mM, COS-7 cells, read-out: inhibition constant for human SGLT1",27 nM
